Columns and labels:
[1] = molecular target: anti-histamine antibody D22.12; details: read-out: Kd (dissociation constant) of probe for antibody; FITC-histamine at 6 nM, antibody concentration varied over approximately 3 logs
Procedure: (§1) In the standard assay, HDC, diluted to 90 nM in HDC Buffer plus 0.9 mM DTT and 99 μM PLP, was added to a black opaque 384-well plate in 20 μL. Test compound in HDC Buffer plus 6% DMSO or buffer alone was added to the plate in 10 μL. 36 nM FITC-histidine and 3.6 mM histidine were combined in FP Buffer and transferred to the plate in 10 μL. Finally, 90 nM […] antibody was added in 20 μL of FP Buffer. Thus, the final concentrations in the assay were: HDC 30 nM, FITC-histidine 6 nM, histidine 600 μM, anti-histamine antibody 30 nM, DMSO 1%. The plate was incubated at 37° C. for 90 minutes. The fluorescence polarization signal was read on an LJL Analyst (Molecular Devices, Sunnyvale, Calif.) with excitation at 485 nm, emission at 530 nm, a fluorescein dichroic mirror at 505 nm and G factor set to 1. A 96-well plate version of the assay, used in assay development, was performed as described above with twice the volumes indicated for 384-well plates.
We first determined the affinity of the probe for the antibody and the specificity of the interaction, both of which are crucial to constructing a robust assay in a competitive mode. […] The probe concentration was held at 6 nM and the antibody concentration varied over approximately 3 logs. […]

[2] = test system: anti-histamine antibody D22.12; assay: Displacement of FITC-histamine binding to the anti-histamine antibody by competitor ligand; design: species or system mice
Procedure: Triplicate determinations in a 96-well plate were performed as described in the Methods, with 6 nM FITC-histamine, 50 nM anti-histamine antibody, and the indicated concentration of competitor ligand.
as §1
We first determined the affinity of the probe for the antibody and the specificity of the interaction, both of which are crucial to constructing a robust assay in a competitive mode. […] The probe concentration was held at 6 nM and the antibody concentration varied over approximately 3 logs. […] Probe and antibody concentrations were held constant at 6 and 50 nM, respectively, while the concentrations of histamine and histidine were varied as shown.

HDC = molecular target: T1, HDC (Mus musculus, UniProt P23738); details: Watabe et al 1992; read-out: Reported Km; cited from earlier work
T1 sequence (P23738 1-662): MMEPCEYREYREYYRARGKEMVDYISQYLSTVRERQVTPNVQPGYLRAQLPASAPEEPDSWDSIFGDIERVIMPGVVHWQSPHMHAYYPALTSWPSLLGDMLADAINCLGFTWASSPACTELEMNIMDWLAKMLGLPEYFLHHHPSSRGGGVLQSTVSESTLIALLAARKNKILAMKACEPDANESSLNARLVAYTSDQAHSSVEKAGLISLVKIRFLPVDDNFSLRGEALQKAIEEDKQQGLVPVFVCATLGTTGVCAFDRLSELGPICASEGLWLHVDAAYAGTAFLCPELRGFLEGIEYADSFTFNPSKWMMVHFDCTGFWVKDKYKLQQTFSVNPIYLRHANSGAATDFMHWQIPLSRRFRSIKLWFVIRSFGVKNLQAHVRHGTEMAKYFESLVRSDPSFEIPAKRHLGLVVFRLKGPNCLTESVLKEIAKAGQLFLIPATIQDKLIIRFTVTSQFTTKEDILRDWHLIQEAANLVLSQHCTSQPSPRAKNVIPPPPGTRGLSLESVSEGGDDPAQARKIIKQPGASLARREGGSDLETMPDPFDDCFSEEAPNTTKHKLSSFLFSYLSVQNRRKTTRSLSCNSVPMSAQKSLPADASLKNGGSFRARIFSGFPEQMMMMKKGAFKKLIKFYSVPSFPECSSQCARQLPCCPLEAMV

human HDC = molecular target: T2, human HDC (Homo sapiens, UniProt P19113); assay: Histidine decarboxylase fluorescence polarization standard assay; format: biochemical; details: standard assay: 30 nM HDC, 600 μM histidine, 90 minutes at 37° C.; read-out: IC50 for inhibition of HDC
T2 construct: containing the first 1431 bases (amino acid residues 1-477) of HDC; made in house; host or cells: Sf9 insect cells (baculovirus, pDEST 20)
T2 sequence (P19113 1-477 S148Q): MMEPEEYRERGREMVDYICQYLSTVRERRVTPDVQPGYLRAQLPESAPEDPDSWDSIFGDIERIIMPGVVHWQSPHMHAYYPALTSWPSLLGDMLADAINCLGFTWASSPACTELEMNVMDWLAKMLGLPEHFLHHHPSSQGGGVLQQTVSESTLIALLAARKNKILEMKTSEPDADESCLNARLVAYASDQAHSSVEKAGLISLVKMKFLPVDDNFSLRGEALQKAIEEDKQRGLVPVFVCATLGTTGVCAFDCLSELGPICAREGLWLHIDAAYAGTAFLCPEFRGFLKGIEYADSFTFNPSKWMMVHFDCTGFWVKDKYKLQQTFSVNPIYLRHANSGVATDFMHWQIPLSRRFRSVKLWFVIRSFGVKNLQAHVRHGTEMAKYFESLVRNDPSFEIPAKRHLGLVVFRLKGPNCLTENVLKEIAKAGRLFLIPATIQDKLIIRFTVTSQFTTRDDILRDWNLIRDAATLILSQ
Procedure: as §1

Compound: N-[3′,6′-dihydroxy-3-oxospiro[isobenzofuran-[(3H), 9′-[9H]xanthene-5(or 6)-yl]-N′-[2-(1H-imidazol-4-yl)ethyl]-2,4-dimethylthiourea, disodium salt [FITC-histamine]
- Kd [1]: 0.0039 µM

Compound: N[C@@H](Cc1c[nH]cn1)C(=O)O [Histidine, L-Histidine]
- Competition with FITC-histamine for binding to the antibody ([2]; 6 nM FITC-histamine, 50 nM antibody, over the 5 log range examined): unable to compete
- Km (HDC): 200 to 400 µM

Compound: NCCc1c[nH]cn1 [Histamine, histamine]
- IC50 ([2]; 6 nM FITC-histamine, 50 nM anti-histamine antibody, read-out: IC50 for competition with the probe for antibody binding): 135 µM
- Selectivity for histamine over histidine ([2]; FP assay): > 100 fold

Compound: COC(=O)C(N)Cc1c[nH]cn1 (stereo not shown) [methyl ester histidine]
- IC50 (human HDC): 7.7 µM

Compound: N[C@@](CF)(Cc1cnc[nH]1)C(=O)O [α-fluoromethyl histidine]
- IC50 (human HDC): 1.4 µM

From patent US7608407B2, “Fluorescence polarization assay for determining histidine decarboxylase activity” (Boehringer Ingelheim Pharmaceuticals, Inc., priority 2004, dated 2009)
